Measurements from ChEMBL document CHEMBL1671738, “In vitro pharmacokinetic and pharmacodynamic evaluation of S-013420 against Haemophilus influenzae and Streptococcus pneumoniae” (Antimicrob Agents Chemother, 2010).
Values after ≈ are worked out from the molar mass of the structure shown.

What was measured:
Streptococcus pneumoniae [1] = test: Maximum antibacterial activity against erythromycin-resistant Streptococcus pneumoniae SR26132 clinical isolate expressing ermB gene based on viable cell reduction at 24 hrs index in vitro pharmacodynamic model; format: ADME, organism-based
Streptococcus pneumoniae [2] = test: Half maximum antibacterial activity against erythromycin-resistant Streptococcus pneumoniae SR26143 clinical isolate expressing mefA gene based on area above the killing curve index in vitro pharmacodynamic model; format: ADME, organism-based; conditions: in vivo
Streptococcus pneumoniae [3] = test: Half life in erythromycin-resistant Streptococcus pneumoniae SR26132 clinical isolate expressing ermB gene in vitro pharmacodynamic model; format: ADME, organism-based; conditions: in vivo
Streptococcus pneumoniae [4] = test: Antibacterial activity against erythromycin-resistant Streptococcus pneumoniae SR26132 clinical isolate expressing ermB gene by broth microdilution method; format: functional
Streptococcus pneumoniae [5] = test: Maximum antibacterial activity against erythromycin-resistant Streptococcus pneumoniae SR26143 clinical isolate expressing mefA gene based on area above the killing curve index in vitro pharmacodynamic model; format: ADME, organism-based; conditions: in vivo
Streptococcus pneumoniae [6] = test: Ratio of AUC (0 to 24 hrs) to MIC in erythromycin-resistant Streptococcus pneumoniae SR26143 clinical isolate expressing mefA gene by maximal efficacy criteria based in vitro pharmacodynamic model; format: functional
Streptococcus pneumoniae [7] = test: Maximum antibacterial activity against erythromycin-susceptible Streptococcus pneumoniae SR26229 clinical isolate based on area above the killing curve index in vitro pharmacodynamic model; format: ADME, organism-based; conditions: in vivo
Streptococcus pneumoniae [8] = test: Cmax in erythromycin-resistant Streptococcus pneumoniae SR26132 clinical isolate expressing ermB gene in vitro pharmacodynamic model; format: ADME, organism-based; conditions: in vivo
Haemophilus influenzae [9] = test: %TMIC in Haemophilus influenzae SR24169 clinical isolate based on area above the killing curve index by maximum antibacterial activity criteria based in vitro pharmacodynamic model; format: functional
Streptococcus pneumoniae [10] = test: Ratio of AUC (0 to 24 hrs) to MIC in erythromycin-resistant Streptococcus pneumoniae SR26132 clinical isolate expressing ermB gene by bacteriostatic effect criteria based in vitro pharmacodynamic model; format: functional
Haemophilus influenzae [11] = test: Cmax in Haemophilus influenzae SR24169 clinical isolate in vitro pharmacodynamic model; format: ADME, organism-based; conditions: in vivo
Haemophilus influenzae [12] = test: Antibacterial activity against Haemophilus influenzae SR24169 clinical isolate by broth microdilution method; format: functional
Haemophilus influenzae [13] = test: %TMIC in Haemophilus influenzae SR24169 clinical isolate based on area above the killing curve index by minimum antibacterial activity criteria based in vitro pharmacodynamic model; format: functional
Streptococcus pneumoniae [14] = test: Half maximum antibacterial activity against erythromycin-susceptible Streptococcus pneumoniae SR26229 clinical isolate based on area above the killing curve index in vitro pharmacodynamic model; format: ADME, organism-based; conditions: in vivo
Haemophilus influenzae [15] = test: Ratio of AUC (0 to 24 hrs) to MIC in Haemophilus influenzae SR24169 clinical isolate based on viable cell reduction at 24 hrs index by maximum antibacterial activity criteria based in vitro pharmacodynamic model; format: functional
Streptococcus pneumoniae [16] = test: Half maximum antibacterial activity against erythromycin-susceptible Streptococcus pneumoniae SR26229 clinical isolate based on viable cell reduction at 24 hrs index in vitro pharmacodynamic model; format: ADME, organism-based
Streptococcus pneumoniae [17] = test: Ratio of AUC (0 to 24 hrs) to MIC in erythromycin-susceptible Streptococcus pneumoniae SR26229 clinical isolate by bacteriostatic effect criteria based in vitro pharmacodynamic model; format: functional
Streptococcus pneumoniae [18] = test: Half maximum antibacterial activity against erythromycin-resistant Streptococcus pneumoniae SR26143 clinical isolate expressing mefA gene based on viable cell reduction at 24 hrs index in vitro pharmacodynamic model; format: ADME, organism-based
Haemophilus influenzae [19] = test: Ratio of Cmax to MIC in Haemophilus influenzae SR24169 clinical isolate based on area above the killing curve index by minimum antibacterial activity criteria based in vitro pharmacodynamic model; format: functional
Haemophilus influenzae [20] = test: Ratio of AUC (0 to 24 hrs) to MIC in Haemophilus influenzae SR24169 clinical isolate based on viable cell reduction at 24 hrs index by minimum antibacterial activity criteria based in vitro pharmacodynamic model; format: functional
Streptococcus pneumoniae [21] = test: Maximum antibacterial activity against erythromycin-susceptible Streptococcus pneumoniae SR26229 clinical isolate based on viable cell reduction at 24 hrs index in vitro pharmacodynamic model; format: ADME, organism-based
Streptococcus pneumoniae [22] = test: Cmax in erythromycin-susceptible Streptococcus pneumoniae SR26229 clinical isolate in vitro pharmacodynamic model; format: ADME, organism-based; conditions: in vivo
Streptococcus pneumoniae [23] = test: AUC (0 to 24 hrs) in erythromycin-resistant Streptococcus pneumoniae SR26143 clinical isolate expressing mefA in vitro pharmacodynamic model; format: ADME, organism-based; parameters: time < 24 hr; conditions: in vivo
Streptococcus pneumoniae [24] = test: AUC (0 to 24 hrs) in erythromycin-resistant Streptococcus pneumoniae SR26132 clinical isolate expressing ermB gene in vitro pharmacodynamic model; format: ADME, organism-based; parameters: time < 24 hr; conditions: in vivo
Haemophilus influenzae [25] = test: Ratio of Cmax to MIC in Haemophilus influenzae SR24169 clinical isolate based on viable cell reduction at 24 hrs index by maximum antibacterial activity criteria based in vitro pharmacodynamic model; format: functional
Streptococcus pneumoniae [26] = test: Ratio of AUC (0 to 24 hrs) to MIC in erythromycin-susceptible Streptococcus pneumoniae SR26229 clinical isolate by maximal efficacy criteria based in vitro pharmacodynamic model; format: functional
Streptococcus pneumoniae [27] = test: Half life in erythromycin-susceptible Streptococcus pneumoniae SR26229 clinical isolate in vitro pharmacodynamic model; format: ADME, organism-based; conditions: in vivo
Haemophilus influenzae [28] = test: Half life in Haemophilus influenzae SR24169 clinical isolate in vitro pharmacodynamic model; format: ADME, organism-based; conditions: in vivo
Haemophilus influenzae [29] = test: AUC (0 to 24 hrs) in Haemophilus influenzae SR24169 clinical isolate in vitro pharmacodynamic model; format: ADME, organism-based; parameters: time < 24 hr; conditions: in vivo
Streptococcus pneumoniae [30] = test: Minimum antibacterial activity against erythromycin-susceptible Streptococcus pneumoniae SR26229 clinical isolate based on viable cell reduction at 24 hrs index in vitro pharmacodynamic model; format: ADME, organism-based
Haemophilus influenzae [31] = test: Ratio of AUC (0 to 24 hrs) to MIC in Haemophilus influenzae SR24169 clinical isolate based on area above the killing curve index by maximum antibacterial activity criteria based in vitro pharmacodynamic model; format: functional
Streptococcus pneumoniae [32] = test: Half life in erythromycin-resistant Streptococcus pneumoniae SR26143 clinical isolate expressing mefA gene in vitro pharmacodynamic model; format: ADME, organism-based; conditions: in vivo
Streptococcus pneumoniae [33] = test: Ratio of AUC (0 to 24 hrs) to MIC in erythromycin-resistant Streptococcus pneumoniae SR26132 clinical isolate expressing ermB gene by maximal efficacy criteria based in vitro pharmacodynamic model; format: functional
Haemophilus influenzae [34] = test: Ratio of AUC (0 to 24 hrs) to MIC in Haemophilus influenzae SR24169 clinical isolate by maximal efficacy criteria based in vitro pharmacodynamic model; format: functional
Haemophilus influenzae [35] = test: Ratio of AUC (0 to 24 hrs) to MIC in Haemophilus influenzae SR24169 clinical isolate based on area above the killing curve index by half maximum antibacterial activity criteria based in vitro pharmacodynamic model; format: functional
Streptococcus pneumoniae [36] = test: Half maximum antibacterial activity against erythromycin-resistant Streptococcus pneumoniae SR26132 clinical isolate expressing ermB gene based on viable cell reduction at 24 hrs index in vitro pharmacodynamic model; format: ADME, organism-based
Streptococcus pneumoniae [37] = test: AUC (0 to 24 hrs) in erythromycin-susceptible Streptococcus pneumoniae SR26229 clinical isolate in vitro pharmacodynamic model; format: ADME, organism-based; parameters: time < 24 hr; conditions: in vivo
Haemophilus influenzae [38] = test: Ratio of AUC (0 to 24 hrs) to MIC in Haemophilus influenzae SR24169 clinical isolate based on viable cell reduction at 24 hrs index by half maximum antibacterial activity criteria based in vitro pharmacodynamic model; format: functional
Haemophilus influenzae [39] = test: %TMIC in Haemophilus influenzae SR24169 clinical isolate based on viable cell reduction at 24 hrs index by maximum antibacterial activity criteria based in vitro pharmacodynamic model; format: functional
Streptococcus pneumoniae [40] = test: Cmax in erythromycin-resistant Streptococcus pneumoniae SR26143 clinical isolate expressing mefA gene in vitro pharmacodynamic model; format: ADME, organism-based; conditions: in vivo
Haemophilus influenzae [41] = test: Ratio of AUC (0 to 24 hrs) to MIC in Haemophilus influenzae SR24169 clinical isolate by bacteriostatic effect criteria based in vitro pharmacodynamic model; format: functional
Streptococcus pneumoniae [42] = test: Half maximum antibacterial activity against erythromycin-resistant Streptococcus pneumoniae SR26132 clinical isolate expressing ermB gene based on area above the killing curve index in vitro pharmacodynamic model; format: ADME, organism-based; conditions: in vivo
Haemophilus influenzae [43] = test: %TMIC in Haemophilus influenzae SR24169 clinical isolate based on area above the killing curve index by half maximum antibacterial activity criteria based in vitro pharmacodynamic model; format: functional
Streptococcus pneumoniae [44] = test: Maximum antibacterial activity against erythromycin-resistant Streptococcus pneumoniae SR26132 clinical isolate expressing ermB gene based on area above the killing curve index in vitro pharmacodynamic model; format: ADME, organism-based; conditions: in vivo
Haemophilus influenzae [45] = test: Ratio of Cmax to MIC in Haemophilus influenzae SR24169 clinical isolate based on viable cell reduction at 24 hrs index by minimum antibacterial activity criteria based in vitro pharmacodynamic model; format: functional
Haemophilus influenzae [46] = test: %TMIC in Haemophilus influenzae SR24169 clinical isolate based on viable cell reduction at 24 hrs index by minimum antibacterial activity criteria based in vitro pharmacodynamic model; format: functional
Streptococcus pneumoniae [47] = test: Minimum antibacterial activity against erythromycin-susceptible Streptococcus pneumoniae SR26229 clinical isolate based on area above the killing curve index in vitro pharmacodynamic model; format: ADME, organism-based; conditions: in vivo
Haemophilus influenzae [48] = test: Ratio of AUC (0 to 24 hrs) to MIC in Haemophilus influenzae SR24169 clinical isolate based on area above the killing curve index by minimum antibacterial activity criteria based in vitro pharmacodynamic model; format: functional
Streptococcus pneumoniae [49] = test: Ratio of AUC (0 to 24 hrs) to MIC in erythromycin-resistant Streptococcus pneumoniae SR26143 clinical isolate expressing mefA gene by bacteriostatic effect criteria based in vitro pharmacodynamic model; format: functional
Streptococcus pneumoniae [50] = test: Antibacterial activity against erythromycin-susceptible Streptococcus pneumoniae SR26229 clinical isolate by broth microdilution method; format: functional
Streptococcus pneumoniae [51] = test: Minimum antibacterial activity against erythromycin-resistant Streptococcus pneumoniae SR26132 clinical isolate expressing ermB gene based on viable cell reduction at 24 hrs index in vitro pharmacodynamic model; format: ADME, organism-based
Streptococcus pneumoniae [52] = test: Maximum antibacterial activity against erythromycin-resistant Streptococcus pneumoniae SR26143 clinical isolate expressing mefA gene based on viable cell reduction at 24 hrs index in vitro pharmacodynamic model; format: ADME, organism-based
Streptococcus pneumoniae [53] = test: Antibacterial activity against erythromycin-resistant Streptococcus pneumoniae SR26143 clinical isolate expressing mefA gene by broth microdilution method; format: functional
Streptococcus pneumoniae [54] = test: Minimum antibacterial activity against erythromycin-resistant Streptococcus pneumoniae SR26143 clinical isolate expressing mefA gene based on viable cell reduction at 24 hrs index in vitro pharmacodynamic model; format: ADME, organism-based
Haemophilus influenzae [55] = test: Ratio of Cmax to MIC in Haemophilus influenzae SR24169 clinical isolate based on area above the killing curve index by half maximum antibacterial activity criteria based in vitro pharmacodynamic model; format: functional
Haemophilus influenzae [56] = test: Ratio of Cmax to MIC in Haemophilus influenzae SR24169 clinical isolate based on area above the killing curve index by maximum antibacterial activity criteria based in vitro pharmacodynamic model; format: functional

CC[C@H]1OC(=O)[C@H](C)C(=O)[C@H](C)[C@@H](O[C@@H]2O[C@H](C)C[C@H](N(C)C)[C@H]2O)[C@@]2(C)C[C@@H](C)/C(=N\C(C)=O)[C@H](C)C(OC/C(=N\OCc3ccc(-n4cccn4)nc3)CO2)[C@]1(C)O (single isomer, unassigned)
Activity (Streptococcus pneumoniae [1]): 5.98
Activity (Streptococcus pneumoniae [2]): 16.64
t1/2 (Streptococcus pneumoniae [3]): 17.6 h
MIC (Streptococcus pneumoniae [4]): 0.25 µg/mL (≈ 0.297 µM)
Activity (Streptococcus pneumoniae [5]): 80.2
Ratio (Streptococcus pneumoniae [6]): 22.3
Activity (Streptococcus pneumoniae [7]): 78.23
Cmax (Streptococcus pneumoniae [8]): 0.016 µg/mL
Ratio (Haemophilus influenzae [9]): 79.0912
Ratio (Streptococcus pneumoniae [10]): 4.66
Cmax (Haemophilus influenzae [11]): 0.506 µg/mL
MIC (Haemophilus influenzae [12]): 8 µg/mL (≈ 9.51 µM)
Ratio (Haemophilus influenzae [13]): 0
Activity (Streptococcus pneumoniae [14]): 9.96
Ratio (Haemophilus influenzae [15]): 6.4436
Activity (Streptococcus pneumoniae [16]): 9.35
Ratio (Streptococcus pneumoniae [17]): 9.01
Activity (Streptococcus pneumoniae [18]): 15.89
Ratio (Haemophilus influenzae [19]): 0
Ratio (Haemophilus influenzae [20]): -2.4461
Activity (Streptococcus pneumoniae [21]): 6.22
Cmax (Streptococcus pneumoniae [22]): 4 ng/mL
AUC (Streptococcus pneumoniae [23]): 0.14 µg·h/mL
AUC (Streptococcus pneumoniae [24]): 0.28 µg·h/mL
Ratio (Haemophilus influenzae [25]): 6.0956
Ratio (Streptococcus pneumoniae [26]): 16.3
t1/2 (Streptococcus pneumoniae [27]): 17.6 h
t1/2 (Haemophilus influenzae [28]): 2.22 h
AUC (Haemophilus influenzae [29]): 8.61 µg·h/mL
Activity (Streptococcus pneumoniae [30]): 2.64
Ratio (Haemophilus influenzae [31]): 80.2825
t1/2 (Streptococcus pneumoniae [32]): 17.6 h
Ratio (Streptococcus pneumoniae [33]): 22
Ratio (Haemophilus influenzae [34]): 10.8
Ratio (Haemophilus influenzae [35]): 6.9338
Activity (Streptococcus pneumoniae [36]): 5.11
AUC (Streptococcus pneumoniae [37]): 0.07 µg·h/mL
Ratio (Haemophilus influenzae [38]): 10.1172
Ratio (Haemophilus influenzae [39]): 4.6778
Cmax (Streptococcus pneumoniae [40]): 8 ng/mL
Ratio (Haemophilus influenzae [41]): 9.63
Activity (Streptococcus pneumoniae [42]): 8.75
Ratio (Haemophilus influenzae [43]): 3.0676
Activity (Streptococcus pneumoniae [44]): 84.15
Ratio (Haemophilus influenzae [45]): -2.3622
Ratio (Haemophilus influenzae [46]): -1.1805
Activity (Streptococcus pneumoniae [47]): 0
Ratio (Haemophilus influenzae [48]): 0
Ratio (Streptococcus pneumoniae [49]): 15.2
MIC (Streptococcus pneumoniae [50]): 0.063 µg/mL (≈ 0.0749 µM)
Activity (Streptococcus pneumoniae [51]): -2.14
Activity (Streptococcus pneumoniae [52]): 6.12
MIC (Streptococcus pneumoniae [53]): 0.125 µg/mL (≈ 0.149 µM)
Activity (Streptococcus pneumoniae [54]): 2.36
Ratio (Haemophilus influenzae [55]): 0.6894
Ratio (Haemophilus influenzae [56]): 75.7785
